In ChEMBL document CHEMBL5465560, “Selectivity Literature for EUbOPEN Chemogenomic Library” (2024):
One block for each compound: values may come before it.

Key:
[1] = target: T1, Muscarinic acetylcholine receptor M1 (Homo sapiens) (UniProt P11229); assay: Selectivity interaction (Panel of non-epigenetic targets (kinases, GPCRs, ion channels, and transporters, Eurofins) ) EUB0000271b CHRM1; settings: at 1 µM
T1 sequence (whole entry): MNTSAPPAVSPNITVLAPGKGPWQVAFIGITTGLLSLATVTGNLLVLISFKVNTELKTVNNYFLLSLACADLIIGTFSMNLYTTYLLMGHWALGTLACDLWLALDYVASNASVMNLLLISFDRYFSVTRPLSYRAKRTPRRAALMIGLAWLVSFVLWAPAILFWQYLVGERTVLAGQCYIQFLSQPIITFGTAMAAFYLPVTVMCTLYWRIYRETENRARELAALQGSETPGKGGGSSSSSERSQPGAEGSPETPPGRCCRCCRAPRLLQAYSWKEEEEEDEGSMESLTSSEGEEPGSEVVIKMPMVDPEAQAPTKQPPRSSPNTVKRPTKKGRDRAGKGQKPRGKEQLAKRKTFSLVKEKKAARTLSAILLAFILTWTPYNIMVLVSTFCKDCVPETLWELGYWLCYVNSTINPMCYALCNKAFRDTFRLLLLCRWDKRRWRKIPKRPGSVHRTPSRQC

[2] = target: Serine/threonine-protein kinase SBK1 (Homo sapiens) (UniProt Q52WX2); assay: Selectivity interaction (KinomeScan (DiscoverX)) EUB0001079a SBK1; settings: at 1 µM
[3] = target: T2, Tyrosine-protein kinase Tec (Homo sapiens) (UniProt P42680); assay: Selectivity interaction (KinomeScan (DiscoverX)) EUB0001619a TEC; settings: at 1 µM
T2 sequence (whole entry): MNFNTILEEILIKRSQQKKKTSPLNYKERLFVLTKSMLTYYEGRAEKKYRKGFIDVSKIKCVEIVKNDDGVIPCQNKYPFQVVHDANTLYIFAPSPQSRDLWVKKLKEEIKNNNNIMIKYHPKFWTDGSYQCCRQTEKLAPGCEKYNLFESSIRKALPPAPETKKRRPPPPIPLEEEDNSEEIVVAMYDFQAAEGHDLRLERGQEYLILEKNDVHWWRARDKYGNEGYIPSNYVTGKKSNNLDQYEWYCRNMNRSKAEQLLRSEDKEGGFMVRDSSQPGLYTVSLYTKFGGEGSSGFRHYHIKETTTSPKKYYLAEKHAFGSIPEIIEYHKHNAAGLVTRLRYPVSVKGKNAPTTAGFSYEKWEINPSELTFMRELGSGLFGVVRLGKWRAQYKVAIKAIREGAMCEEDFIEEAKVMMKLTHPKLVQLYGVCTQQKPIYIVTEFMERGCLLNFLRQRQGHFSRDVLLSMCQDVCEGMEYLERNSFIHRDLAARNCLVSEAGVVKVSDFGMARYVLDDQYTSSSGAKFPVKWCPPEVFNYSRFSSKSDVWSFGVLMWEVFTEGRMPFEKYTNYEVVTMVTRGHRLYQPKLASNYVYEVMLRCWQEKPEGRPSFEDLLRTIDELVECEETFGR

[4] = target: Tyrosine-protein kinase BTK (Homo sapiens, UniProt Q06187); assay: Selectivity interaction (KinomeScan (DiscoverX)) EUB0001049a BTK; settings: at 1 µM
[5] = target: T3, Ephrin type-A receptor 6 (Homo sapiens) (UniProt Q9UF33); assay: Selectivity interaction (LanthaScreen Eu Kinase Binding Assay) EUB0001632a EPHA6; settings: at 10 µM
T3 sequence (whole entry): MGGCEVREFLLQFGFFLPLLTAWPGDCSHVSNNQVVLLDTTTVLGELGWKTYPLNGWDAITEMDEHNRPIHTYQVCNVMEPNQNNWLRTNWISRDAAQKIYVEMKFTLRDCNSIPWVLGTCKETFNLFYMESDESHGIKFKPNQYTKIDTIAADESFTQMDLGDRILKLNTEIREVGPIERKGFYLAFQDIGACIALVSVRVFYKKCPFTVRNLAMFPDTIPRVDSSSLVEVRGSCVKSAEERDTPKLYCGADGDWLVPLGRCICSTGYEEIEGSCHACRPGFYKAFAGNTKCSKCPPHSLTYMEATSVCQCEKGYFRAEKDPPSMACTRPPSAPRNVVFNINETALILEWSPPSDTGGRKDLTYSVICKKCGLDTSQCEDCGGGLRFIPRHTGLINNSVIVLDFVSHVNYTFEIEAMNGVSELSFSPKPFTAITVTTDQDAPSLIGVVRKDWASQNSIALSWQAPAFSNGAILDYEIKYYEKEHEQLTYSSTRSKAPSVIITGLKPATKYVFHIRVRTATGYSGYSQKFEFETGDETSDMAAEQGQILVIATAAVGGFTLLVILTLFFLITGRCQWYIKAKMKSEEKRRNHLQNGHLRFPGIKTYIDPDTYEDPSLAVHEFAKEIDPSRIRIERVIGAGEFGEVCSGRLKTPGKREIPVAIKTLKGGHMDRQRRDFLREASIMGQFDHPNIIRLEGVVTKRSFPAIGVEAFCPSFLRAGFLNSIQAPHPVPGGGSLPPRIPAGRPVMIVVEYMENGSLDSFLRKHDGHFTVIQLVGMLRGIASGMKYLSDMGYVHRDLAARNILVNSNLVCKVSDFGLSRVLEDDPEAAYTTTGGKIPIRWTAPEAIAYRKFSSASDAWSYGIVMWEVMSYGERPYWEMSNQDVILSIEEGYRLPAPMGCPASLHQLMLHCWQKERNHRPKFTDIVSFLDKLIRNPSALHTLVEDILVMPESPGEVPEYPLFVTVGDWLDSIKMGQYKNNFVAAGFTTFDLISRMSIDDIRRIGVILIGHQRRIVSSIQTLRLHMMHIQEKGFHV

[6] = target: Receptor tyrosine-protein kinase erbB-2 (Homo sapiens, UniProt P04626); assay: Selectivity interaction (Kinase panel (Z-LYTE Assay)) EUB0001632a ERBB2; settings: at 10 µM
Receptor tyrosine-protein kinase erbB-2, sequence (P04626 whole entry): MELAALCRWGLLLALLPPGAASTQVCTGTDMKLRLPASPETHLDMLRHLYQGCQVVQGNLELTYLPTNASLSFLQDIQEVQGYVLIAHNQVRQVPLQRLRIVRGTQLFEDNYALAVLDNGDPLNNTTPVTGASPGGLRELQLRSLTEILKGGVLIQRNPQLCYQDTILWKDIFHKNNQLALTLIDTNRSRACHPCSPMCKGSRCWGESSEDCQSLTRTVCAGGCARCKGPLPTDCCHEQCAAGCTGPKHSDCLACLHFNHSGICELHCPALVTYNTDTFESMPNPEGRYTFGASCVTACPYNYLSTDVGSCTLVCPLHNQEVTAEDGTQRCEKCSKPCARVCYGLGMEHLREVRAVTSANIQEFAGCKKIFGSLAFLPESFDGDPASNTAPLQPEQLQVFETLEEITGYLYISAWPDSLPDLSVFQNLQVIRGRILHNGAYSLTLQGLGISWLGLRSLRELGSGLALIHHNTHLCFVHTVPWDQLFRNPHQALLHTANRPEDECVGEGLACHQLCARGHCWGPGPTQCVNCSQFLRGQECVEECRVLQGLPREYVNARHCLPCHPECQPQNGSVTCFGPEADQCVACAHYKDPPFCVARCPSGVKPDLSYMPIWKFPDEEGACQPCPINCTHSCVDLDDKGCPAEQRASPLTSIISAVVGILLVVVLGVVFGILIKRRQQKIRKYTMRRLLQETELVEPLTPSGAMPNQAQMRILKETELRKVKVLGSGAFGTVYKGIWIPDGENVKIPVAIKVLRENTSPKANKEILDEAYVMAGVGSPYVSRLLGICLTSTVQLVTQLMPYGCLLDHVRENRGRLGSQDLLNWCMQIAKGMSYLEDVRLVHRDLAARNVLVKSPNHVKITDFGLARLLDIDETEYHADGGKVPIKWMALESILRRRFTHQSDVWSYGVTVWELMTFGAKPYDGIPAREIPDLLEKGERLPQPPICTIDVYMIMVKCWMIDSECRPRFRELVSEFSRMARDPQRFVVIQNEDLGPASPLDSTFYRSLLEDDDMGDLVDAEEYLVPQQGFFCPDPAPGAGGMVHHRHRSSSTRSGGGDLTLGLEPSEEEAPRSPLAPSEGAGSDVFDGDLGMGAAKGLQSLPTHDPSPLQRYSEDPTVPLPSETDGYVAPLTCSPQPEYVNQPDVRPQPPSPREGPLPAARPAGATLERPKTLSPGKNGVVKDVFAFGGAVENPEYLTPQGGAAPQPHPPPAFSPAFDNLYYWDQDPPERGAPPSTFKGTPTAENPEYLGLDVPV

Serine/threonine-protein kinase SBK1 (Homo sapiens), sequence (Q52WX2 whole entry): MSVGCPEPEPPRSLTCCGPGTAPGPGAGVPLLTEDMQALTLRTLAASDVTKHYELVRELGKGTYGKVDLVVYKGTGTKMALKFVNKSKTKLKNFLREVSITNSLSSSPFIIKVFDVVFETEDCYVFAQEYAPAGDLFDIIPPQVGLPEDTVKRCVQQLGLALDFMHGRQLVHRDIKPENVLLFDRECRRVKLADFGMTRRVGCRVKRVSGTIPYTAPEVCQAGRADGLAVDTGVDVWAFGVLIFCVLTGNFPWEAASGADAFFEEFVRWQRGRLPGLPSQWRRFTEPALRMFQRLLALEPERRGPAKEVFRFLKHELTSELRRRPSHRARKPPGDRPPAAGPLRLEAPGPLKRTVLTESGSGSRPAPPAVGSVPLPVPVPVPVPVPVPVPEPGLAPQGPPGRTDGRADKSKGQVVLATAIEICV
Tyrosine-protein kinase BTK, sequence (Q06187 whole entry): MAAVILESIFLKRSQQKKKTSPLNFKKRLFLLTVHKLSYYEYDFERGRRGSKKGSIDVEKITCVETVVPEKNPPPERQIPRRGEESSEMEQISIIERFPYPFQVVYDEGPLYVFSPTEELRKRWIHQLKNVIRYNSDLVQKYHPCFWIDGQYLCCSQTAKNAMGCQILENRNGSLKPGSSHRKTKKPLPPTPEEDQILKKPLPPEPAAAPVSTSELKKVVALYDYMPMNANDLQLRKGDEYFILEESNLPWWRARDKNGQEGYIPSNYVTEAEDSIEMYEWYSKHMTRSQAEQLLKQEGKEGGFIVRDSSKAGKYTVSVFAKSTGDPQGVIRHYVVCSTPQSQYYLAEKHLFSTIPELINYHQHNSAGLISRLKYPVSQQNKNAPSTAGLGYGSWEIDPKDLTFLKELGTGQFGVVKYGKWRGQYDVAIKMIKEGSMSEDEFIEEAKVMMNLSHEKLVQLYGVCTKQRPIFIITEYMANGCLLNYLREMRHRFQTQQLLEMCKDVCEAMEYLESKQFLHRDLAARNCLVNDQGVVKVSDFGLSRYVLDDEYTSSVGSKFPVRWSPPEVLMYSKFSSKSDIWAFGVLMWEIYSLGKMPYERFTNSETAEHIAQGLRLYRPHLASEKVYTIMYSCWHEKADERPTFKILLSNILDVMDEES

SMILES: Cc1cc(C)cc([C@@H]2c3cc(C)ccc3NC(=O)CN2C(=O)c2ccc(Br)s2)c1
% of inhibition [1]: -2%

SMILES: Nc1cnc(N2CCc3cc(S(=O)(=O)Nc4c(F)cc(Cl)cc4F)cc(N4CCCC4=O)c32)nc1 [TP-020n]
% of control [2]: 83%

SMILES: N#Cc1cccc(-c2c[nH]c3ncnc(N4CCOCC4)c23)c1
% of control [3]: 100%

SMILES: COc1cc(Nc2nc(C)cc(-c3cnn4nc(OC)ccc34)n2)cc(C(F)(F)F)c1
% of control [4]: 87%

% of inhibition [5]: -24%
% of control [6]: -0.819%
SMILES: Cn1cc(-n2cnc3c(NCc4nc5cc(Cl)c(Cl)cc5[nH]4)nc(N4CCOCC4)nc32)cn1
